The structures appear in SMILES notation. Some results are limits rather than exact numbers.

This assay deals with MV4:11 human cancer cell lines. Briefly: Cellular viability / anti-proliferative activity, CellTiter-Glo, 5 day protocol. The format is cell-based. The settings on record: Homo sapiens, MV4-11, 120 h, MV4:11 cells; 5 day incubation; CellTiter-Glo; mean of minimum two replicates; read-out: GI50 on cellular proliferation of MV4:11 human cancer cell lines. A digest of the protocol:
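Compounds were tested over 22 two-fold dilutions starting at 30 μM in 0.3% DMSO, with 200 cells per well (7200 cells/mL). Viability was measured by CellTiter-Glo luminescence at day 5.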
On the technique in general: ATP-based viability assays read luminescence as a measure of living cells.
As to `Cc1nccn1Cc1cc2c(c(-c3cn(C)nc3C(F)(F)F)c1)CCN(Cc1cc(Br)c3ccccc3n1)C2=O` [Example 204, 2-((4-Bromoquinolin-2-yl)methyl)-7-((2-methyl-1H-imidazol-1-yl)methyl)-5-(1-methyl-3-(trifluoromethyl)-1H-pyrazol-4-yl)-3,4-dihydroisoquinolin-1(2H)-one], the GI50 is 58 nM. With `Cc1nccn1Cc1cc2c(c(-c3cn(C)nc3C(F)(F)F)c1)CCN(Cc1cn(C)c3ccccc13)C2=O` [Example 189, 7-((2-Methyl-1H-imidazol-1-yl)methyl)-2-((1-methyl-1H-indol-3-yl)methyl)-5-(1-methyl-3-(trifluoromethyl)-1H-pyrazol-4-yl)-3,4-dihydroisoquinolin-1(2H)-one], the GI50 was determined as 1000 nM. For `CC[C@@H](c1cncc(C)c1)N1CCc2c(cc(Cn3ccnc3C)cc2-c2cn(C)nc2C(F)(F)F)C1=O` [Example 199, (S)-7-((2-Methyl-1H-imidazol-1-yl)methyl)-5-(1-methyl-3-(trifluoromethyl)-1H-pyrazol-4-yl)-2-(1-(5-methylpyridin-3-yl)propyl)-3,4-dihydroisoquinolin-1(2H)-one], the GI50 is less than 50 nM. In the case of `COc1ccnc([C@H](C)N2CCc3c(cc(Cn4ccnc4C)cc3-c3ccncc3C)C2=O)c1` [Example 224, (S)-2-(1-(4-Methoxypyridin-2-yl)ethyl)-7-((2-methyl-1H-imidazol-1-yl)methyl)-5-(3-methylpyridin-4-yl)-3,4-dihydroisoquinolin-1(2H)-one], the GI50 came out at 72 nM. As for `CCn1cc(-c2cc(CN3CCSC3=N)cc3c2CCN([C@@H](C)c2cc(OC)ccn2)C3=O)c(C(F)(F)F)n1` [Example 151, (S)-5-(1-Ethyl-3-(trifluoromethyl)-1H-pyrazol-4-yl)-7-((2-iminothiazolidin-3-yl)methyl)-2-(1-(4-methoxypyridin-2-yl)ethyl)-3,4-dihydroisoquinolin-1(2H)-one], the GI50 is less than 50 nM.

Regarding `Cc1cc(CN2CCc3c(cc(Cn4ccn(C)c4=N)cc3-c3ccc(F)cc3C)C2=O)ccc1Cl` [Example 28, 2-(4-Chloro-3-methylbenzyl)-5-(4-fluoro-2-methylphenyl)-7-((2-imino-3-methyl-2,3-dihydro-1H-imidazol-1-yl)methyl)-3,4-dihydroisoquinolin-1(2H)-one], the GI50 was greater than 938 nM.

Consider `CCn1cc(-c2cc(CN3CCOC3=N)cc3c2CCN(Cc2cc(C)nn2C)C3=O)c(C(F)(F)F)n1` [Example 95, 2-((1,3-Dimethyl-1H-pyrazol-5-yl)methyl)-5-(1-ethyl-3-(trifluoromethyl)-1H-pyrazol-4-yl)-7-((2-iminooxazolidin-3-yl)methyl)-3,4-dihydroisoquinolin-1(2H)-one], for which the GI50 turned out to be 197 nM.

As to `Cc1nccn1Cc1cc2c(c(-c3cn(C)nc3C(F)(F)F)c1)CCN(CC1CCCOC1)C2=O` (stereo not shown) [Example 167, 7-((2-Methyl-1H-imidazol-1-yl)methyl)-5-(1-methyl-3-(trifluoromethyl)-1H-pyrazol-4-yl)-2-((tetrahydro-2H-pyran-3-yl)methyl)-3,4-dihydroisoquinolin-1(2H)-one], the GI50 is 3020 nM. In the case of `COc1cc(CN2CCc3c(cc(Cn4cnnc4C)cc3-c3ccc(F)cc3C)C2=O)cc(OC)c1` [Example 145, 2-(3,5-Dimethoxybenzyl)-5-(4-fluoro-2-methylphenyl)-7-((3-methyl-4H-1,2,4-triazol-4-yl)methyl)-3,4-dihydroisoquinolin-1(2H)-one], the GI50 was greater than 938 nM.

On to `COc1ccnc([C@H](C)N2CCc3c(cc(Cn4ccoc4=N)cc3-c3cn(C)nc3C(F)(F)F)C2=O)c1` [Example 93, (S)-7-((2-Iminooxazol-3(2H)-yl)methyl)-2-(1-(4-methoxypyridin-2-yl)ethyl)-5-(1-methyl-3-(trifluoromethyl)-1H-pyrazol-4-yl)-3,4-dihydroisoquinolin-1(2H)-one], for which the GI50 was less than 50 nM. As for `CCn1cc(-c2cc(Cn3ccnc3C)cc3c2CCN([C@@H](C)c2cncc(OC)c2)C3=O)c(C(F)(F)F)n1` [Example 243, (S)-5-(1-Ethyl-3-(trifluoromethyl)-1H-pyrazol-4-yl)-2-(1-(5-methoxypyridin-3-yl)ethyl)-7-((2-methyl-1H-imidazol-1-yl)methyl)-3,4-dihydroisoquinolin-1(2H)-one], the GI50 was less than 50 nM. The result for `COc1ccnc(CN2CCc3c(cc(Cn4ccsc4=N)cc3-c3cn(C)nc3C(F)(F)F)C2=O)c1` [Example 101, 7-((2-Iminothiazol-3(2H)-yl)methyl)-2-((4-methoxypyridin-2-yl)methyl)-5-(1-methyl-3-(trifluoromethyl)-1H-pyrazol-4-yl)-3,4-dihydroisoquinolin-1(2H)-one] reads less than 50 nM.

Turning to `Cc1nccn1Cc1cc2c(c(-c3cn(C)nc3C(F)(F)F)c1)CCN([C@@H](C)c1cc(C3CC3)nn1C)C2=O` [Example 239, (S)-2-(1-(3-Cyclopropyl-1-methyl-1H-pyrazol-5-yl)ethyl)-7-((2-methyl-1H-imidazol-1-yl)methyl)-5-(1-methyl-3-(trifluoromethyl)-1H-pyrazol-4-yl)-3,4-dihydroisoquinolin-1(2H)-one], the GI50 was found to be 573 nM. The result for `Cc1nccn1Cc1cc2c(c(-c3cn(C)nc3C(F)(F)F)c1)CCN(Cc1cc(Br)cc3[nH]ccc13)C2=O` [Example 236, 2-((6-Bromo-1H-indol-4-yl)methyl)-7-((2-methyl-1H-imidazol-1-yl)methyl)-5-(1-methyl-3-(trifluoromethyl)-1H-pyrazol-4-yl)-3,4-dihydroisoquinolin-1(2H)-one] reads 121 nM. Next, `COc1cc(CN2CCc3c(cc(CN4CCCC4=N)cc3-c3cn(C)nc3C(F)(F)F)C2=O)cc(OC)c1` [Example 109, 2-(3,5-Dimethoxybenzyl)-7-((2-iminopyrrolidin-1-yl)methyl)-5-(1-methyl-3-(trifluoromethyl)-1H-pyrazol-4-yl)-3,4-dihydroisoquinolin-1(2H)-one]: 104 nM. `COc1ccnc([C@H](C2CC2)N2CCc3c(cc(Cn4ccnc4C)cc3-c3cn(C)nc3C)C2=O)c1` [Example 203, (S)-2-(Cyclopropyl(4-methoxypyridin-2-yl)methyl)-5-(1,3-dimethyl-1H-pyrazol-4-yl)-7-((2-methyl-1H-imidazol-1-yl)methyl)-3,4-dihydroisoquinolin-1(2H)-one]: the GI50 came to 52 nM. The result for `COc1cc(CN2CCc3c(cc(Cn4cnc5ccccc54)cc3-c3ccc(F)cc3C)C2=O)cc(OC)c1` [Example 227] reads 7450 nM; that for `COc1ccnc(CN2CCc3c(cc(Cn4ccnc4C4CC4)cc3-c3cn(C)nc3C)C2=O)c1` [Example 9, 7-((2-Cyclopropyl-1H-imidazol-1-yl)methyl)-5-(1,3-dimethyl-1H-pyrazol-4-yl)-2-((4-methoxypyridin-2-yl)methyl)-3,4-dihydroisoquinolin-1(2H)-one], 553 nM. The result for `Cc1cccnc1CN1CCc2c(cc(Cn3ccnc3C)cc2-c2cn(C)nc2C(F)(F)F)C1=O` [Example 181, 7-((2-Methyl-1H-imidazol-1-yl)methyl)-5-(1-methyl-3-(trifluoromethyl)-1H-pyrazol-4-yl)-2-((3-methylpyridin-2-yl)methyl)-3,4-dihydroisoquinolin-1(2H)-one] reads 3460 nM.

The values are drawn from US11999716B2, “WDR5 inhibitors and modulators” (priority 2018, dated 2024).
